# Assay results from patent US4755513A, “Antimicrobial 1-substituted phenyl-4-oxoquinoline-3-carboxylic acid compounds” (Otsuka Pharmaceutical Company, Limited, priority 1985, dated 1988).
# Assays:
# Experiment in all cases: MIC by serial dilution method on agar plate
# Assay type in all cases: cell-based
# [1] = test system: Staphylococcus pyrogens IID S-23; details: 1 × 10^8 cells/ml
# Description: (§1) The microorganisms were used in a concentration of 1×10^8 cells/ml (O.D. 660 mμ, 0.07-0.16) and 1×10^6 cells/ml (100 folds dilution).
# [2] = test system: Staphylococcus aureus FDA 209P
# Description: as §1
# Escherichia coli No. 29 = test system: Escherichia coli No. 29
# Description: (§2) Chemotherapy, 22, 1126-1128 (1974)]. The microorganisms were used in a concentration of 1×10^8 cells/ml (O.D. 660 mμ, 0.07-0.16) and 1×10^6 cells/ml (100 folds dilution).
# [3] = test system: Serratia marcescens IFO 12648
# Description: as §2
# [4] = test system: Proteus morganii IID Kono
# Description: as §2
# [5] = test system: Klebsiella pneumoniae NCTC 9632
# Description: as §2
# [6] = test system: Pseudomonas aeruginosa E-2
# Description: as §2
# [7] = test system: Bacillus subtilis ATCC 6633
# Description: as §2
# [8] = test system: Acinetobacter calcoaceticus AC-54
# Description: as §2
# [9] = test system: Streptococcus faecalis IFO 12580
# Description: as §2
# [10] = test system: Pseudomonas aeruginosa ATCC 10145
# Description: as §2
# [11] = test system: Proteus inconstans IFO 12930
# Description: as §2
# [12] = test system: Escherichia coli NIHJ JC-2
# Description: as §2
Substance,minimum inhibitory concentration (MIC) ([2]; 1 × 10^6 cells/ml),minimum inhibitory concentration (MIC) ([2]; 1 × 10^8 cells/ml),minimum inhibitory concentration (MIC) (Escherichia coli No. 29; 1 × 10^6 cells/ml),minimum inhibitory concentration (MIC) (Escherichia coli No. 29; 1 × 10^8 cells/ml),minimum inhibitory concentration (MIC) ([3]; 1 × 10^6 cells/ml),minimum inhibitory concentration (MIC) ([3]; 1 × 10^8 cells/ml),minimum inhibitory concentration (MIC) ([4]; 1 × 10^6 cells/ml),minimum inhibitory concentration (MIC) ([4]; 1 × 10^8 cells/ml),minimum inhibitory concentration (MIC) ([5]; 1 × 10^6 cells/ml),minimum inhibitory concentration (MIC) ([5]; 1 × 10^8 cells/ml),minimum inhibitory concentration (MIC) ([6]; 1 × 10^6 cells/ml),minimum inhibitory concentration (MIC) ([6]; 1 × 10^8 cells/ml),minimum inhibitory concentration (MIC) ([7]; 1 × 10^6 cells/ml),minimum inhibitory concentration (MIC) ([7]; 1 × 10^8 cells/ml),minimum inhibitory concentration (MIC) ([8]; 1 × 10^6 cells/ml),minimum inhibitory concentration (MIC) ([8]; 1 × 10^8 cells/ml),minimum inhibitory concentration (MIC) ([9]; 1 × 10^6 cells/ml),minimum inhibitory concentration (MIC) ([9]; 1 × 10^8 cells/ml),minimum inhibitory concentration (MIC) ([10]; 1 × 10^6 cells/ml),minimum inhibitory concentration (MIC) ([10]; 1 × 10^8 cells/ml),other results
"6,8-Difluoro-1-(4-fluorophenyl)-7-(1-piperazinyl)-1,4-dihydro-4-oxoquinoline-3-carboxylic acid [Test Compd. No. 2]",0.195,0.195,< 0.048,< 0.048,0.39,0.781,0.781,1.56,0.097,0.195,1.56,1.56,0.097,0.195,0.781,1.56,0.781,1.56,1.56,1.56,minimum inhibitory concentration (MIC) [1]: 6.25; minimum inhibitory concentration (MIC) ([11]; 1 × 10^6 cells/ml): 1.56; minimum inhibitory concentration (MIC) ([11]; 1 × 10^8 cells/ml): 3.12; minimum inhibitory concentration (MIC) ([12]; 1 × 10^6 cells/ml): < 0.048; minimum inhibitory concentration (MIC) ([12]; 1 × 10^8 cells/ml): < 0.048
"6,8-Difluoro-1-(4-hydroxy-2-fluorophenyl)-7-(1-piperazinyl)-1,4-dihydro-4-oxoquinoline-3-carboxylic acid [Example 5]",0.097,0.097,< 0.048,0.097,0.781,0.781,0.781,1.56,0.097,0.097,1.56,1.56,0.195,0.39,0.39,0.781,0.781,1.56,1.56,3.12,minimum inhibitory concentration (MIC) ([11]; 1 × 10^6 cells/ml): 1.56; minimum inhibitory concentration (MIC) ([11]; 1 × 10^8 cells/ml): 3.12; minimum inhibitory concentration (MIC) ([12]; 1 × 10^6 cells/ml): < 0.048; minimum inhibitory concentration (MIC) ([12]; 1 × 10^8 cells/ml): 0.097
